From US20200199097A1, “POMALIDOMIDE DERIVATIVE AND PREPARATION METHOD THEREFOR” (NANJING NORATECH PARMACEUTICALS CO., LTD, priority 2017, published 2020)
In brackets after ≈: the same amount, converted by molar mass. Counter-ions that a name gives are not always drawn. Like-named read-outs stand apart in the source and are kept apart here. Each block holds one compound with its values, some of them ahead of it.

Columns and labels:
[1] = Determination of solubility in water at room temperature by HPLC; format: physicochemical; conditions: saturated solubility not determined; for solubility: thermodynamic from solid, read-out: Minimum solubility in water at room temperature
Method: 1 mg of compound 1 was mixed with 1 mL of water, stirred at room temperature, and completely dissolved, and the supernatant was taken as a test sample solution.
50 mg of the hydrochloride or tromethamine salt of the compound was mixed with 150 μl of water, stirred at room temperature, and completely dissolved, and the supernatant was taken as a test sample solution.
In this test, the saturated solubility of the sample is not determined, but an appropriate amount of the sample is selected to determine the solubility of the sample. […] However, the solubility of pomalidomide in water is about 0.01 mg/ml, which is much lower than the solubility of the compound of the present invention or the salt thereof.

[2] = Determination of stability under different environmental conditions; format: physicochemical
Method: An appropriate amount of the sample was independently placed under different environmental conditions, and the percentage of the sample at day 0, 5, 10 or 30 was determined to evaluate the stability of the sample.

[3] = cited from earlier work

SMILES: CC(C)[C@H](N)C(=O)OCN1C(=O)CCC(N2C(=O)c3cccc(N)c3C2=O)C1=O (some centres unmarked) [Hydrochloride salt of compound 1]
Minimum solubility in water at room temperature [1]: >300 mg/mL
percentage of the sample ([2]; Day 0): 97.1%
percentage of the sample ([2]; Day 10/40° C./60% RH/Dark): 96.9%
percentage of the sample ([2]; Day 10/60° C./75% RH/Dark): 96.4%
percentage of the sample ([2]; Day 10/Light): 96.7%
percentage of the sample ([2]; Day 10/RT/75% RH/Dark): 96.8%
percentage of the sample ([2]; Day 10/RT/92.5% RH/Dark): 95.5%
percentage of the sample ([2]; Day 30/40° C./60% RH/Dark): 95.1%
percentage of the sample ([2]; Day 30/60° C./75% RH/Dark): 94.7%
percentage of the sample ([2]; Day 30/Light): 95.0%
percentage of the sample ([2]; Day 30/RT/75% RH/Dark): 96.1%
percentage of the sample ([2]; Day 30/RT/92.5% RH/Dark): 93.3%

SMILES: CC(C)[C@H](N)C(=O)OCN1C(=O)CCC(N2C(=O)c3cccc(N)c3C2=O)C1=O (some centres unmarked) [Compound 1]
Minimum solubility in water at room temperature [1]: 1 mg/mL

SMILES: Nc1cccc2c1C(=O)N(C1CCC(=O)N(COP(=O)(O)O)C1=O)C2=O (centres unmarked) [Ditromethamine salt of compound 11]
solubility [1]: > 300 mg/mL
percentage of the sample ([2]; Day 0): 99.9%
percentage of the sample ([2]; Day 5/40° C./60% RH/Dark): 92.8%
percentage of the sample ([2]; Day 5/60° C./75% RH/Dark): 15.6%
percentage of the sample ([2]; Day 5/Light): 99.5%
percentage of the sample ([2]; Day 5/RT/75% RH/Dark): 79.8%
percentage of the sample ([2]; Day 5/RT/92.5% RH/Dark): 78.4%

SMILES: Nc1cccc2c1C(=O)N(C1CCC(=O)NC1=O)C2=O (centres unmarked) [Pomalidomide]
solubility ([3]; 0.1 mol/L hydrochloric acid): 0.0189 mg/mL (≈ 69.2 µM)
solubility ([3]; acetate buffer (pH 4.5)): 0.0187 mg/mL (≈ 68.4 µM)
solubility ([3]; phosphate buffer (pH 6.8)): 0.017 mg/mL (≈ 62.2 µM)
solubility ([3]; purified water): 0.0178 mg/mL (≈ 65.1 µM)
solubility of pomalidomide in water ([3]; water): about 0.01 mg/ml

SMILES: NCC(=O)OCN1C(=O)CCC(N2C(=O)c3cccc(N)c3C2=O)C1=O (centres unmarked) [Hydrochloride salt of compound 2]
solubility [1]: > 300 mg/mL
percentage of the sample ([2]; Day 0): 96.1%
percentage of the sample ([2]; Day 10/40° C./60% RH/Dark): 43.5%
percentage of the sample ([2]; Day 10/60° C./75% RH/Dark): 13.3%
percentage of the sample ([2]; Day 10/RT/92.5% RH/Dark): 93.3%

Now from value to compound:

solubility [1]: > 300 mg/mL
SMILES: C[C@H](N)C(=O)OCN1C(=O)CCC(N2C(=O)c3cccc(N)c3C2=O)C1=O (some centres unmarked) [Hydrochloride salt of compound 3]

solubility [1]: > 300 mg/mL
SMILES: CC[C@H](C)[C@H](N)C(=O)OCN1C(=O)CCC(N2C(=O)c3cccc(N)c3C2=O)C1=O (some centres unmarked) [Hydrochloride salt of compound 5]

solubility [1]: > 300 mg/mL
SMILES: Nc1cccc2c1C(=O)N(C1CCC(=O)N(COC(=O)[C@@H](N)Cc3ccccc3)C1=O)C2=O (some centres unmarked) [Hydrochloride salt of compound 7]

solubility [1]: > 300 mg/mL
SMILES: CC(C)C[C@H](N)C(=O)OCN1C(=O)CCC(N2C(=O)c3cccc(N)c3C2=O)C1=O (some centres unmarked) [Hydrochloride salt of compound 4]

solubility [1]: > 300 mg/mL
SMILES: Nc1cccc2c1C(=O)N(C1CCC(=O)N(COC(=O)[C@@H]3CCCN3)C1=O)C2=O (some centres unmarked) [Hydrochloride salt of compound 6]
